Tests used:
Assay in all cases: Kinase profiling in a biochemical assay panel (mobility shift assays and ELISA), %-inhibition at 1 μM; selectivity entropy
[1] = target: T1, panel of more than 300 wild-type and mutant kinases (313 kinase panel) (Homo sapiens, UniProt P29323)
T1 sequence (P29323 19-1055): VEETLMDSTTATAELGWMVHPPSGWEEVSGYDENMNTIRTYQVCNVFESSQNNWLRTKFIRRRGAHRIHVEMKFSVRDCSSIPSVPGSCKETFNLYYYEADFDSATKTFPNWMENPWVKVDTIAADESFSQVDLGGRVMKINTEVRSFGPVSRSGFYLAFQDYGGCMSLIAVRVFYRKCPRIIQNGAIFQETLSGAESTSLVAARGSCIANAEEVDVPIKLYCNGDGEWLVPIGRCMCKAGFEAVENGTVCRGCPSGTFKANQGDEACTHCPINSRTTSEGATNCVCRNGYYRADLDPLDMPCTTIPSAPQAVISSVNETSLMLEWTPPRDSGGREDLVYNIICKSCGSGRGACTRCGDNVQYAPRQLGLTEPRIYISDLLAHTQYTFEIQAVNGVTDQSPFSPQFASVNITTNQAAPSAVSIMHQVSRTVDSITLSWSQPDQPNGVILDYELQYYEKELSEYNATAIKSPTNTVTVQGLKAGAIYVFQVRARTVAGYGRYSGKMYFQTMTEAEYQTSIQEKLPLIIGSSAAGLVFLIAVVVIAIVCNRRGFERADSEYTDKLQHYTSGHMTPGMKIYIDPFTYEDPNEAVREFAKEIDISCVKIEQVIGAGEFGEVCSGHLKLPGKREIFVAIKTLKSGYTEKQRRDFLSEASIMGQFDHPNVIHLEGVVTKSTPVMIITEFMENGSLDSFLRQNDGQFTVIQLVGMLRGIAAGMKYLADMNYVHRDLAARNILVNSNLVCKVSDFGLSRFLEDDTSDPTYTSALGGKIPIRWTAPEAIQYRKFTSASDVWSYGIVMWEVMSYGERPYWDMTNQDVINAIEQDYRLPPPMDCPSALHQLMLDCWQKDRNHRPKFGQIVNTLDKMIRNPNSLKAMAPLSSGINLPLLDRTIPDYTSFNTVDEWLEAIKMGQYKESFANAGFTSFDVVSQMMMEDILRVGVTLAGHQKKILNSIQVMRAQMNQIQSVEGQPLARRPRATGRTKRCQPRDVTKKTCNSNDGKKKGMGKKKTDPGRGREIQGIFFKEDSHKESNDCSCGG

[2] = target: panel of more than 300 wild-type and mutant kinases (313 kinase panel) (Homo sapiens, UniProt Q9P286)
[3] = target: T2, panel of more than 300 wild-type and mutant kinases (313 kinase panel) (Homo sapiens, UniProt Q13237)
T2 sequence (Q13237 1-762): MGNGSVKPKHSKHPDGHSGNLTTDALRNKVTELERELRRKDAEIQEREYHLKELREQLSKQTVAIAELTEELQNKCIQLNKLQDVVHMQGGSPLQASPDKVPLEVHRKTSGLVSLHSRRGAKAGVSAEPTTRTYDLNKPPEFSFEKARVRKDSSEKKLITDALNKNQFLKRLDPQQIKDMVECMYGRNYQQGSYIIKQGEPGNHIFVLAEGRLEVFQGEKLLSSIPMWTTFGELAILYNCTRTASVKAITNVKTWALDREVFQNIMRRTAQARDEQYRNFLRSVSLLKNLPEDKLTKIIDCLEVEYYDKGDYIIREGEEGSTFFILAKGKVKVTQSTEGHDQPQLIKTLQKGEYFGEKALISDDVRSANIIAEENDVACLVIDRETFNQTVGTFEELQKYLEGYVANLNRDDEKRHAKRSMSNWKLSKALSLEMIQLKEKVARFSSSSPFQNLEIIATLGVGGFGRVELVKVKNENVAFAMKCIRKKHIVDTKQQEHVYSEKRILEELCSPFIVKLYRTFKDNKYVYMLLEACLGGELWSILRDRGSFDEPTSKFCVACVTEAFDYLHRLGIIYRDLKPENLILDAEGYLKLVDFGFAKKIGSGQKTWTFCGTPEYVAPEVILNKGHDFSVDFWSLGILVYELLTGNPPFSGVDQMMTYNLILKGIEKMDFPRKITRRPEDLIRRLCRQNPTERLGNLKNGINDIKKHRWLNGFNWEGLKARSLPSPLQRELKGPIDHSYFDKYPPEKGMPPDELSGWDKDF

[4] = target: panel of more than 300 wild-type and mutant kinases (313 kinase panel) (Homo sapiens, UniProt P31751)
[5] = target: panel of more than 300 wild-type and mutant kinases (313 kinase panel) (Homo sapiens, UniProt Q05397); details: kinase FAK; compound at 1 μM
[6] = target: panel of more than 300 wild-type and mutant kinases (313 kinase panel) (Homo sapiens, UniProt Q96SB4)
[7] = target: T3, panel of more than 300 wild-type and mutant kinases (313 kinase panel) (Homo sapiens, UniProt Q13188)
T3 sequence (Q13188 1-491): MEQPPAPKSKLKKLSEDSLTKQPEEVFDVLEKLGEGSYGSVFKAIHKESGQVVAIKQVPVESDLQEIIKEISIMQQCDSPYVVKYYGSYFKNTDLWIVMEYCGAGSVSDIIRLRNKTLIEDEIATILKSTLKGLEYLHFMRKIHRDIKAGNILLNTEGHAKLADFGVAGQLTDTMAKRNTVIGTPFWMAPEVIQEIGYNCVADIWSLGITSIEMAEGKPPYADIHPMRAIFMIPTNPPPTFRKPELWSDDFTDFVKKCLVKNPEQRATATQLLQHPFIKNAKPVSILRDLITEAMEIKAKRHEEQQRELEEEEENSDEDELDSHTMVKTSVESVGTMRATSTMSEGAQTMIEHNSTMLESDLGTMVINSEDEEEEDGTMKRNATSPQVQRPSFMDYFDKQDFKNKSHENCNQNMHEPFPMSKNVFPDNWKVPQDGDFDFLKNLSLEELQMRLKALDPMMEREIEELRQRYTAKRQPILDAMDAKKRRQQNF

Chain of panel of more than 300 wild-type and mutant kinases (313 kinase panel) (Homo sapiens, UniProt P31751) (P31751 whole entry, change not shown): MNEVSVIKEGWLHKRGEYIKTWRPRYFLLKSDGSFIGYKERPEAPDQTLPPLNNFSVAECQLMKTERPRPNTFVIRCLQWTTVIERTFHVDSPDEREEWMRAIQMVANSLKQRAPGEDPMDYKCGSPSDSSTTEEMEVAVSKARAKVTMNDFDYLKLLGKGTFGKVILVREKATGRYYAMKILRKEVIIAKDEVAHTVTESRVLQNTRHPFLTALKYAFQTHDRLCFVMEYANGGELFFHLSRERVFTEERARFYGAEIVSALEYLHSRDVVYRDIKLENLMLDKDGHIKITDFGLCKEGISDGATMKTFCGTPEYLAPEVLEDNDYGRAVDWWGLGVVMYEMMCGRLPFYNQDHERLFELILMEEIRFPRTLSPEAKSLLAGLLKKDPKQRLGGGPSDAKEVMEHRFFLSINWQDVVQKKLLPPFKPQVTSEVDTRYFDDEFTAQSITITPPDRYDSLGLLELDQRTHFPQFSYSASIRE
Chain of panel of more than 300 wild-type and mutant kinases (313 kinase panel) (Homo sapiens, UniProt Q9P286) (Q9P286 whole entry, change not shown): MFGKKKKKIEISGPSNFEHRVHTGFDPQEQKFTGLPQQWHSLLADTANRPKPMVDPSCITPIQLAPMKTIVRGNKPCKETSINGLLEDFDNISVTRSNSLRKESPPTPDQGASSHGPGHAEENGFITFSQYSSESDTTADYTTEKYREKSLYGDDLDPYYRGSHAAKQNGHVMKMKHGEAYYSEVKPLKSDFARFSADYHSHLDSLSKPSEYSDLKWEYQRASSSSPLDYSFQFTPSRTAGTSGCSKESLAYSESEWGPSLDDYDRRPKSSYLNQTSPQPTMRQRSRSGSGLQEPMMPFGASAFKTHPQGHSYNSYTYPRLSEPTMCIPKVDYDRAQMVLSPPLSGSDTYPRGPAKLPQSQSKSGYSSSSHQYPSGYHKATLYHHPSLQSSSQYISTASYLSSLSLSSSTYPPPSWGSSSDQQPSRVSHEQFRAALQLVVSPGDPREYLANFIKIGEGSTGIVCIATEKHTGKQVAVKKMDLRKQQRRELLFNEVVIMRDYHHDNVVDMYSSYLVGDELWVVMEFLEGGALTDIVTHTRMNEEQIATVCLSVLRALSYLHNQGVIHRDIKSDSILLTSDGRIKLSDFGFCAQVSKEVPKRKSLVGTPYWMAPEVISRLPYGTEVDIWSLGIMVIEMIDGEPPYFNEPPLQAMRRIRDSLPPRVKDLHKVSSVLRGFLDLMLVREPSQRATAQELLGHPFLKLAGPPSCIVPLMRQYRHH
Chain of panel of more than 300 wild-type and mutant kinases (313 kinase panel) (Homo sapiens, UniProt Q96SB4) (Q96SB4 whole entry, change not shown): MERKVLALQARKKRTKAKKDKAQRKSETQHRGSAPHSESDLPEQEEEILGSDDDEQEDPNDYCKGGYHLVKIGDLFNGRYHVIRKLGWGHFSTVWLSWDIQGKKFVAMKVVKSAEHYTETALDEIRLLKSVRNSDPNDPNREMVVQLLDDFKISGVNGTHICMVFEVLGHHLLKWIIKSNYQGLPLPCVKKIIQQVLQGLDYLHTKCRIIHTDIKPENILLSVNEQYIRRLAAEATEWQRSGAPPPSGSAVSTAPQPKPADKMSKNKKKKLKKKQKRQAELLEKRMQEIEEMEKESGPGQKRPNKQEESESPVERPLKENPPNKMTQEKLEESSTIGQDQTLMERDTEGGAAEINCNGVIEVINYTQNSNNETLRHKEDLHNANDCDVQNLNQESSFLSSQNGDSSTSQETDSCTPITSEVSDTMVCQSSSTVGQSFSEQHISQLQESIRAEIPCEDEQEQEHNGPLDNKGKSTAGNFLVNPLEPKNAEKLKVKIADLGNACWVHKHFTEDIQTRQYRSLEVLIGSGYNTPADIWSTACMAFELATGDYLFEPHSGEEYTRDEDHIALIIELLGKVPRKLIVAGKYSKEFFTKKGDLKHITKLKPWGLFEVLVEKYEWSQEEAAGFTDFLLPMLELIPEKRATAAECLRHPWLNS

Row | SMILES | %-inhibition of EPHB2 ([1]; kinase EPHB2, compound at 1 μM) | %-inhibition of PAK5 ([2]; kinase PAK5, 1 μM) | %-inhibition, CGK2 ([3]; kinase CGK2, 1 μM compound) | %-inhibition, AKT2 ([4]; 1 µM) | %-inhibition of FAK [5] | %-inhibition of SRPK1 ([6]; kinase SRPK1, 1 μM) | %-inhibition, AKT2 ([4]; kinase AKT2, 1 μM compound) | %-inhibition of MST2 ([7]; kinase MST2, 1 μM) | %-inhibition of EPHB2 ([1]; 1 µM) | %-inhibition of PAK5 ([2]; 1 µM) | %-inhibition, CGK2 ([3]; 1 µM) | %-inhibition of SRPK1 ([6]; 1 µM) | %-inhibition of MST2 ([7]; 1 µM)
1 | COc1cc(Nc2c(C#N)cnc3cc(OCCCN4CCN(C)CC4)c(OC)cc23)c(Cl)cc1Cl [bosutinib] | 95% | 17% | -0.53% | -2.57% | 22% |  |  |  |  |  |  |  | 
2 | COc1cc2nccc(Oc3ccc(NC(=O)C4(C(=O)Nc5ccc(F)cc5)CC4)cc3)c2cc1OC [cabozantinib] | 96% | -2.51% | -2.55% |  | 10% | 37% | -3.78% | -0.31% |  |  |  |  | 
3 | C[C@@H](Oc1cc(-c2cnn(C3CCNCC3)c2)cnc1N)c1c(Cl)ccc(F)c1Cl [crizotinib] | 57% | 7% | -0.915% |  | 90% | 4.55% | -2.67% | 13% |  |  |  |  | 
4 | CC(C)(C)c1nc(-c2cccc(NS(=O)(=O)c3c(F)cccc3F)c2F)c(-c2ccnc(N)n2)s1 [dabrafenib] | -3.38% | 21% | -1.38% |  | 13% |  |  |  |  |  |  |  | 
5 | Cc1nc(Nc2ncc(C(=O)Nc3c(C)cccc3Cl)s2)cc(N2CCN(CCO)CC2)n1 [dasatinib] |  |  | -6% |  |  | -2.17% |  |  |  |  |  |  | 
6 | C#Cc1cccc(Nc2ncnc3cc(OCCOC)c(OCCOC)cc23)c1 [erlotinib] |  |  |  | 8% |  |  |  |  | 23% | -0.141% | -1.7% | -1.67% | 7%
7 | CO[C@H]1C[C@@H]2CC[C@@H](C)[C@@](O)(O2)C(=O)C(=O)N2CCCC[C@H]2C(=O)O[C@H]([C@H](C)C[C@@H]2CC[C@@H](OCCO)[C@H](OC)C2)CC(=O)[C@H](C)/C=C(\C)[C@@H](O)[C@@H](OC)C(=O)[C@H](C)C[C@H](C)/C=C/C=C/C=C/1C [everolimus] | -7% | -1.87% | -4.58% |  | -4% | 1.69% | -3.78% | -2.3% |  |  |  |  | 
8 | O=S(=O)(c1cccc2cnccc12)N1CCCNCC1 [fasudil] | -7.43% | -6.61% | 46% |  | -4% | -5.38% | -8% | 1.77% |  |  |  |  | 
9 | CS(=O)(=O)CCNCc1ccc(-c2ccc3ncnc(Nc4ccc(OCc5cccc(F)c5)c(Cl)c4)c3c2)o1 [lapatinib] | 4.6% |  | -9% |  | 10% | 0.333% | 4.61% |  |  | -0.566% |  |  | -0.701%
10 | Cc1cn(-c2cc(NC(=O)c3ccc(C)c(Nc4nccc(-c5cccnc5)n4)c3)cc(C(F)(F)F)c2)cn1 [nilotinib] | 85% | 3.39% | 12% |  | 3.25% | 3% | 12% | -8% |  |  |  |  | 
11 | Cc1ccc(Nc2nccc(N(C)c3ccc4c(C)n(C)nc4c3)n2)cc1S(N)(=O)=O [pazopanib] | 16% | 2% | -1% |  | 46% | 8% | -2% | 2% |  |  |  |  | 
12 | Cc1ccc(C(=O)Nc2ccc(CN3CCN(C)CC3)c(C(F)(F)F)c2)cc1C#Cc1cnc2cccnn12 [ponatinib] | 102% | -0.481% | 12% |  |  |  |  |  |  |  |  |  | 
13 | N#CC[C@H](C1CCCC1)n1cc(-c2ncnc3[nH]ccc23)cn1 [ruxolitinib] | 5.54% | 14% |  |  | -1% | 2.4% | -3.68% | 3% |  |  |  |  | 
14 | CCN(CC)CCNC(=O)c1c(C)[nH]c(/C=C2\C(=O)Nc3ccc(F)cc32)c1C [sunitinib] | 81% | 35% |  |  |  | 5% |  |  |  |  |  |  | 

From publication PMC3961306, “Comparison of the Cancer Gene Targeting and Biochemical Selectivities of All Targeted Kinase Inhibitors Approved for Clinical Use” (PLoS ONE, 2014)
